Test results: publication PMC7204527, “In Vitro Assessment of the Interaction Potential of Ocimum basilicum (L.) Extracts on CYP2B6, 3A4, and Rifampicin Metabolism” (Frontiers in Pharmacology, 2020)
Where “and” joins values, the source holds several entries; their conditions need not be identical. Equal entries are not always repeated. Structures can show the parent of a compound that is named as a salt. One block for each molecule: values may come before it.

How the values were obtained:
CYP2B6 mRNA = CYP2B6 mRNA expression in HepG2 cells (RT-PCR, agarose gel); format: cell-based, human; settings: HepG2, 10 μM, positive control, p < 0.001 vs cell control
CYP2B6 = biological target: T1, CYP2B6 (Homo sapiens, UniProt P20813); assay: Michaelis-Menten kinetics of efavirenz metabolism in HLM
T1 sequence (P20813 1-491): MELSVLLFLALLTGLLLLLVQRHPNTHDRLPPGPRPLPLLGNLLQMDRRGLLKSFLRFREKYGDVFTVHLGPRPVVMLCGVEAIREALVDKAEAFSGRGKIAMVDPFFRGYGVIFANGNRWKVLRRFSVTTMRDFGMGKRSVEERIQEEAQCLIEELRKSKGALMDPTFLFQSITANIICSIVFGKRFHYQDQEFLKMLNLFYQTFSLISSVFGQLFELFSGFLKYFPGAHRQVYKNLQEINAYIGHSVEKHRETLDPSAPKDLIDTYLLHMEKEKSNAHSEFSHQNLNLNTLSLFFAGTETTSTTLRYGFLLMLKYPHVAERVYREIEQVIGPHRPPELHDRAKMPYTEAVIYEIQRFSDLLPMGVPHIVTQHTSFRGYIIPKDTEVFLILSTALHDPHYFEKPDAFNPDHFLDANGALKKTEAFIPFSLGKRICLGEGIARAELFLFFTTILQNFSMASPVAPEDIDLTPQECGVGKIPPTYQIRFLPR

CYP1A2 = tested on: CYP1A2; design: method as in Pan et al., 2014; settings: ref Pan et al., 2014; cited from earlier work
[1] = tested on: HIV-1 Reverse Transcriptase (RT)-associated RNase H; design: method as in Sonar et al., 2017; settings: in vitro, ref Sonar et al., 2017, cited from earlier work
β-esterases = assay: Michaelis-Menten kinetics of rifampicin metabolism in HLM; format: in vitro ADME, human; settings: pooled HLM
CYP3A enzymes = tested on: CYP3A enzymes; design: method as in Quintieri et al., 2008; settings: ref Quintieri et al., 2008; cited from earlier work
[2] = biological target: T2, rifampicin metabolism (β-esterases) (Homo sapiens, UniProt P22760); assay: HLM inhibition assay, rifampicin metabolism to 25-O-desacetyl rifampicin, two-point screening and IC50; format: in vitro ADME; settings: liver microsomes, pH 7.4, two-point screening, 49.79 μg/ml, read-out: rifampicin metabolism activity reduced by
T2 sequence (P22760 1-399): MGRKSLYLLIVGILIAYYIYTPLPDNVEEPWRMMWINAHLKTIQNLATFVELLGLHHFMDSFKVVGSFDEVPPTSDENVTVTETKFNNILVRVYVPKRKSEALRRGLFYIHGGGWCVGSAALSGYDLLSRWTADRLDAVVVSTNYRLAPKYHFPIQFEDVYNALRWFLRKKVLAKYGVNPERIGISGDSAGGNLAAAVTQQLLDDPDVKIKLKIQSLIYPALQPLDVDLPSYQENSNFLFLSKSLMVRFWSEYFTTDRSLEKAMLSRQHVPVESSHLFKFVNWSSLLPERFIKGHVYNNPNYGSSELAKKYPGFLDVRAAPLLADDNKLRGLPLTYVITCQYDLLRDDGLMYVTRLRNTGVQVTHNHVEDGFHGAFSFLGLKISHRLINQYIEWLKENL
Method: The inhibitory potential of each extract was assessed using two-point screening (20 and 200 μg/ml) and the activity potential was compared with the control incubates (without inhibitor). Neostigmine was used as the internal standard.
Briefly, a standard 200 μl incubation mixture containing the liver microsomes (0.5 mg/ml protein concentration for efavirenz, 0.25 mg/ml protein concentration rifampicin), efavirenz (15 μM)/rifampicin (48 μM) in 0.2M phosphate buffer (pH 7.4) and the basil herb extract (final concentration […] or 200 μg/ml, dissolved in <1% solvent) was incubated at 37°C for 30 min, in triplicates, with master reaction mix comprising of NADPH (final concentration 1.3 mM) and other reaction co-factors such as glucose-6-phosphate (final concentration 1.3 mM), glucose-6-phosphate dehydrogenase (1 U/ml) and magnesium chloride (final concentration 3.3 mM). About 200 μl of chilled ice-cold acetonitrile spiked with neostigmine (20 μM) was used to terminate each reaction. These samples were then centrifuged at 13,000 rpm for 10 min and the supernatants were subjected to HPLC analysis. The mobile phase comprised of water (A): acetonitrile (B) at a flow rate of 0.7 ml min^-1 for efavirenz samples and water (A): methanol (B) at a flow rate of 0.8 ml min^-1 for rifampicin samples. […] The percentage of remaining activity was expressed as in the equation below (equation 2.8.3.1): […]

[3] = biological target: T2, rifampicin metabolism (β-esterases); assay: Time-dependent inhibition (TDI) IC50 shift assay in HLM, rifampicin metabolism; format: in vitro ADME; settings: human liver microsomes, probe rifampicin
Method: The TDI fold-shift was calculated using the ratio of the IC50s of the normal assay IC50(-) to that of the pre-incubation assay IC50(+), with NADPH (equation 2.8.3.2).
Eq. (2.8.3.2) TDIfold-shift=normal assayIC50(−)/pre-incubation assayIC50(+)
Extracts with fold shifts ≥1.5 were classified positive for TDI ([Nomeir et al., 2004]).

[4] = tested on: UDP glucuronosyltransferases; design: method as in Zhang et al., 2005; settings: different assay conditions, bilirubin as the substrate; ref Zhang et al., 2005; read-out: IC50 reported in a previous HLM study; cited from earlier work

- fold induction of CYP2B6 mRNA expression (CYP2B6 mRNA): significant fold induction
SMILES: C[C@@H]1C[C@H]2[C@@H]3CCC4=CC(=O)C=C[C@]4(C)[C@@]3(F)[C@@H](O)C[C@]2(C)[C@@]1(O)C(=O)CO [Dexamethasone, dexamethasone]

- Km (CYP2B6; human, pooled human liver microsomes): 15.1 µM
- CLint (Vmax/Km) (CYP2B6; pooled HLM): 0.0240 μl/min/mg protein
- Vmax (CYP2B6; pooled HLM, formation of 8-hydroxy efavirenz): 0.3576 pmol/min/mg protein
SMILES: O=C1Nc2ccc(Cl)cc2[C@@](C#CC2CC2)(C(F)(F)F)O1 [EFV, efavirenz]

SMILES: COc1ccc(-c2cc(=O)c3c(O)c(OC)c(OC)cc3o2)cc1O [Eupatorin, Eupatorin (3′,5-Dihydroxy-4′,6,7-trimethoxyflavone)]
- inhibition of CYP1A2 (CYP1A2): inhibits

SMILES: CCCCCCCC/C=C\CCCCCCCCNC(=O)/C=C/c1ccc(O)c(O)c1 [N-oleylcaffeamide]
- inhibition of RT-associated activity of ribonuclease H and DNA polymerase [1]: strongly inhibited

SMILES: CO[C@H]1/C=C/O[C@@]2(C)Oc3c(C)c(O)c4c(O)c(c(/C=N/N5CCN(C)CC5)c(O)c4c3C2=O)NC(=O)/C(C)=C\C=C\[C@H](C)[C@H](O)[C@@H](C)[C@@H](O)[C@@H](C)[C@H](OC(C)=O)[C@@H]1C [RIF, rifampicin]
- CLint (Vmax/Km) (β-esterases): 0.0260 μl/min/mg protein
- Vmax (β-esterases; formation of 25-O-desacetyl rifampicin): 1.2330 pmol/min/mg protein
- Km (β-esterases; formation of 25-O-desacetyl rifampicin, 0–150 μM): 48.2 µM
- Vmax (β-esterases; formation of 25-O-desacetyl rifampicin, listed as RIFAMPICIN): 1.233 pmol/min/mg protein

SMILES: COc1ccc(-c2cc(=O)c3c(O)c(OC)c(OC)cc3o2)cc1 [Salvigenin, Salvigenin (5-Hydroxy-6,7,4′-trimethoxyflavone)]
- inhibition of CYP3A enzymes (CYP3A enzymes): moderate inhibitor

SMILES: Cc1c(O)cccc1C(=O)N[C@@H](CSc1ccccc1)[C@H](O)CN1C[C@H]2CCCC[C@H]2C[C@H]1C(=O)NC(C)(C)C [nelfinavir, nelfinavir mesylate hydrate]
- inhibition at 0.5 h [2]: 30%
- IC50 ([3]; HLM, 30 min pre-incubation with NADPH, rifampicin as substrate, read-out: TDI IC50 against rifampicin metabolism): 6.39 µM and 3.63 µg/mL
- IC50 shift ([3]; rifampicin pathway, fold shift ≥1.5 classified positive for TDI, read-out: IC50 shift-fold, co-incubation IC50(-) / pre-incubation IC50(+)): > 1.5
- IC50 [4]: 2.7 µM

SMILES: CCCCCCCCCCCCCCOC(=O)/C=C/c1ccc(O)c(OC)c1 [tetradecyl ferulate]
- IC50 ([1]; read-out: IC50, RNase H inhibition): 12.4 µM
